Key:
Assay in all cases: relative viability (nuclei count vs DMSO), 5 days (fraction); higher = more cells survive
[1] = test system: EMC-BAC-2
In short: (§1)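 Lung cancer cell lines in 1536-well plates got either a single drug or a fixed anchor-drug dose together with five library-drug doses (not always all listed) in √10 steps, by pin tool, on the day after seeding. Nuclei were counted after 5 days, and relative viability is the treated-to-vehicle ratio of nuclei counts. Values are medians of duplicate plates.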

[2] = test system: NCI-H650
In short: as §1

[3] = test system: NCI-H2023
In short: as §1

[4] = test system: NCI-H1993
In short: as §1

[5] = test system: NCI-H1395
In short: as §1

[6] = test system: HCC-44
In short: as §1

[7] = test system: LOU-NH91
In short: as §1

[8] = test system: NCI-H727
In short: as §1

[9] = test system: 201T
In short: as §1

[10] = test system: NCI-H596
In short: as §1

[11] = test system: NCI-H647
In short: as §1

[12] = test system: NCI-H838
In short: as §1

[13] = test system: NCI-H2347
In short: as §1

[14] = test system: NCI-H2126
In short: as §1

[15] = test system: BEN
In short: as §1

[16] = test system: NCI-H23
In short: as §1

[17] = test system: HARA
In short: as §1

[18] = test system: NCI-H2087
In short: as §1

[19] = test system: NCI-H3122
In short: as §1

**Q.** Which relative viability ([1]; first compound 0.04 µM) does the source give for Cc1sc2c(c1C)C(c1ccc(Cl)cc1)=N[C@@H](CC(=O)OC(C)(C)C)c1nnc(C)n1-2 [JQ1] + CS(=O)(=O)CCNCc1ccc(-c2ccc3ncnc(Nc4ccc(OCc5cccc(F)c5)c(Cl)c4)c3c2)o1 [Lapatinib] (partner 2 µM) here?
**A.** The relative viability was 0.841.

**Q.** What about the relative viability ([1]; first compound 0.1265 µM) of the same molecule?
**A.** Its relative viability is 0.905.

**Q.** And the relative viability ([1]; first compound 0.4 µM)?
**A.** Its relative viability is 0.949.

**Q.** And the relative viability ([1]; first compound 1.265 µM)?
**A.** Its relative viability is 0.551.

**Q.** What about the relative viability ([1]; first compound 4 µM) of the same molecule?
**A.** Its relative viability is 0.495.

**Q.** What about the relative viability ([2]; first compound 0.04 µM) of the same molecule?
**A.** Its relative viability is 0.959.

**Q.** And the relative viability ([2]; first compound 0.1265 µM)?
**A.** The relative viability was 0.527.

**Q.** What about the relative viability ([2]; first compound 0.4 µM) of the same molecule?
**A.** The relative viability was 0.647.

**Q.** And the relative viability ([2]; first compound 1.265 µM)?
**A.** Its relative viability is 0.259.

**Q.** And the relative viability ([2]; first compound 4 µM)?
**A.** The relative viability was 0.295.

**Q.** And the relative viability ([3]; first compound 0.04 µM)?
**A.** The relative viability was 0.738.

**Q.** And the relative viability ([3]; first compound 0.1265 µM)?
**A.** Its relative viability is 0.463.

**Q.** What about the relative viability ([3]; first compound 0.4 µM) of the same molecule?
**A.** Its relative viability is 0.443.

**Q.** And the relative viability ([3]; first compound 1.265 µM)?
**A.** The relative viability was 0.334.

**Q.** What about the relative viability ([3]; first compound 4 µM) of the same molecule?
**A.** Its relative viability is 0.258.

**Q.** And the relative viability ([4]; first compound 0.04 µM)?
**A.** Its relative viability is 0.825.

**Q.** What about the relative viability ([4]; first compound 0.1265 µM) of the same molecule?
**A.** Its relative viability is 0.812.

**Q.** And the relative viability ([4]; first compound 0.4 µM)?
**A.** The relative viability was 0.676.

**Q.** And the relative viability ([4]; first compound 1.265 µM)?
**A.** Its relative viability is 0.702.

**Q.** And the relative viability ([4]; first compound 4 µM)?
**A.** Its relative viability is 0.65.

**Q.** And the relative viability ([5]; first compound 0.04 µM)?
**A.** The relative viability was 0.931.

**Q.** And the relative viability ([5]; first compound 0.1265 µM)?
**A.** Its relative viability is 0.733.

**Q.** What about the relative viability ([5]; first compound 0.4 µM) of the same molecule?
**A.** Its relative viability is 0.935.

**Q.** What about the relative viability ([5]; first compound 1.265 µM) of the same molecule?
**A.** The relative viability was 0.492.

**Q.** And the relative viability ([5]; first compound 4 µM)?
**A.** Its relative viability is 0.487.

**Q.** What about the relative viability ([6]; first compound 0.04 µM) of the same molecule?
**A.** Its relative viability is 1.07.

**Q.** And the relative viability ([6]; first compound 0.1265 µM)?
**A.** The relative viability was 0.849.

**Q.** And the relative viability ([6]; first compound 0.4 µM)?
**A.** Its relative viability is 0.795.

**Q.** And the relative viability ([6]; first compound 1.265 µM)?
**A.** Its relative viability is 0.488.

**Q.** What about the relative viability ([6]; first compound 4 µM) of the same molecule?
**A.** The relative viability was 0.532.

**Q.** What about the relative viability ([7]; first compound 0.04 µM) of the same molecule?
**A.** The relative viability was 0.787.

**Q.** What about the relative viability ([7]; first compound 0.1265 µM) of the same molecule?
**A.** Its relative viability is 0.679.

**Q.** What about the relative viability ([7]; first compound 0.4 µM) of the same molecule?
**A.** The relative viability was 0.624.

**Q.** What about the relative viability ([7]; first compound 1.265 µM) of the same molecule?
**A.** Its relative viability is 0.501.

**Q.** And the relative viability ([7]; first compound 4 µM)?
**A.** Its relative viability is 0.392.

**Q.** And the relative viability ([8]; first compound 0.04 µM)?
**A.** The relative viability was 0.727.

**Q.** What about the relative viability ([8]; first compound 0.1265 µM) of the same molecule?
**A.** Its relative viability is 0.695.

**Q.** And the relative viability ([8]; first compound 0.4 µM)?
**A.** The relative viability was 0.506.

**Q.** And the relative viability ([8]; first compound 1.265 µM)?
**A.** Its relative viability is 0.361.

**Q.** And the relative viability ([8]; first compound 4 µM)?
**A.** Its relative viability is 0.469.

**Q.** And the relative viability ([9]; first compound 0.04 µM)?
**A.** Its relative viability is 0.998.

**Q.** What about the relative viability ([9]; first compound 0.1265 µM) of the same molecule?
**A.** The relative viability was 0.51.

**Q.** And the relative viability ([9]; first compound 0.4 µM)?
**A.** The relative viability was 0.974.

**Q.** And the relative viability ([9]; first compound 1.265 µM)?
**A.** The relative viability was 0.724.

**Q.** What about the relative viability ([9]; first compound 4 µM) of the same molecule?
**A.** The relative viability was 0.548.

**Q.** What about the relative viability ([10]; first compound 0.04 µM) of the same molecule?
**A.** Its relative viability is 1.07.

**Q.** And the relative viability ([10]; first compound 0.1265 µM)?
**A.** The relative viability was 0.956.

**Q.** And the relative viability ([10]; first compound 0.4 µM)?
**A.** The relative viability was 0.887.

**Q.** And the relative viability ([10]; first compound 1.265 µM)?
**A.** Its relative viability is 0.546.

**Q.** What about the relative viability ([10]; first compound 4 µM) of the same molecule?
**A.** Its relative viability is 0.415.

**Q.** What about the relative viability ([11]; first compound 0.04 µM) of the same molecule?
**A.** The relative viability was 0.997.

**Q.** And the relative viability ([11]; first compound 0.1265 µM)?
**A.** The relative viability was 0.509.

**Q.** And the relative viability ([11]; first compound 0.4 µM)?
**A.** The relative viability was 0.439.

**Q.** And the relative viability ([11]; first compound 1.265 µM)?
**A.** The relative viability was 0.104.

**Q.** And the relative viability ([11]; first compound 4 µM)?
**A.** Its relative viability is 0.0821.

**Q.** And the relative viability ([12]; first compound 0.04 µM)?
**A.** The relative viability was 0.991.

**Q.** What about the relative viability ([12]; first compound 0.1265 µM) of the same molecule?
**A.** The relative viability was 0.462.

**Q.** And the relative viability ([12]; first compound 0.4 µM)?
**A.** The relative viability was 0.454.

**Q.** And the relative viability ([12]; first compound 1.265 µM)?
**A.** Its relative viability is 0.237.

**Q.** What about the relative viability ([12]; first compound 4 µM) of the same molecule?
**A.** Its relative viability is 0.191.

**Q.** And the relative viability ([13]; first compound 0.04 µM)?
**A.** Its relative viability is 0.934.

**Q.** What about the relative viability ([13]; first compound 0.1265 µM) of the same molecule?
**A.** The relative viability was 0.623.

**Q.** What about the relative viability ([13]; first compound 0.4 µM) of the same molecule?
**A.** The relative viability was 0.831.

**Q.** What about the relative viability ([13]; first compound 1.265 µM) of the same molecule?
**A.** The relative viability was 0.701.

**Q.** And the relative viability ([13]; first compound 4 µM)?
**A.** The relative viability was 0.679.

**Q.** And the relative viability ([14]; first compound 0.04 µM)?
**A.** Its relative viability is 0.759.

**Q.** What about the relative viability ([14]; first compound 0.1265 µM) of the same molecule?
**A.** The relative viability was 0.746.

**Q.** And the relative viability ([14]; first compound 0.4 µM)?
**A.** The relative viability was 0.755.

**Q.** And the relative viability ([14]; first compound 1.265 µM)?
**A.** The relative viability was 0.604.

**Q.** What about the relative viability ([14]; first compound 4 µM) of the same molecule?
**A.** The relative viability was 0.68.

**Q.** What about the relative viability ([15]; first compound 0.04 µM) of the same molecule?
**A.** Its relative viability is 0.676.

**Q.** What about the relative viability ([15]; first compound 0.1265 µM) of the same molecule?
**A.** Its relative viability is 0.561.

**Q.** And the relative viability ([15]; first compound 0.4 µM)?
**A.** The relative viability was 0.427.

**Q.** And the relative viability ([15]; first compound 1.265 µM)?
**A.** Its relative viability is 0.292.

**Q.** And the relative viability ([15]; first compound 4 µM)?
**A.** The relative viability was 0.266.

**Q.** What about the relative viability ([16]; first compound 0.04 µM) of the same molecule?
**A.** The relative viability was 0.956.

**Q.** And the relative viability ([16]; first compound 0.1265 µM)?
**A.** Its relative viability is 0.943.

**Q.** And the relative viability ([16]; first compound 0.4 µM)?
**A.** The relative viability was 1.09.

**Q.** And the relative viability ([16]; first compound 1.265 µM)?
**A.** The relative viability was 0.301.

**Q.** And the relative viability ([16]; first compound 4 µM)?
**A.** Its relative viability is 0.362.

**Q.** What about the relative viability ([17]; first compound 0.04 µM) of the same molecule?
**A.** Its relative viability is 0.871.

**Q.** And the relative viability ([17]; first compound 0.1265 µM)?
**A.** The relative viability was 0.559.

**Q.** And the relative viability ([17]; first compound 0.4 µM)?
**A.** The relative viability was 0.642.

**Q.** What about the relative viability ([17]; first compound 1.265 µM) of the same molecule?
**A.** The relative viability was 0.317.

**Q.** And the relative viability ([17]; first compound 4 µM)?
**A.** The relative viability was 0.165.

**Q.** What about the relative viability ([18]; first compound 0.04 µM) of the same molecule?
**A.** The relative viability was 1.12.

**Q.** What about the relative viability ([18]; first compound 0.4 µM) of the same molecule?
**A.** The relative viability was 0.904.

**Q.** And the relative viability ([18]; first compound 1.265 µM)?
**A.** The relative viability was 0.786.

**Q.** What about the relative viability ([18]; first compound 4 µM) of the same molecule?
**A.** The relative viability was 0.506.

**Q.** What about the relative viability ([19]; first compound 0.04 µM) of the same molecule?
**A.** Its relative viability is 0.996.

**Q.** And the relative viability ([19]; first compound 0.1265 µM)?
**A.** Its relative viability is 0.974.

**Q.** And the relative viability ([19]; first compound 0.4 µM)?
**A.** Its relative viability is 0.981.

**Q.** And the relative viability ([19]; first compound 1.265 µM)?
**A.** The relative viability was 1.02.

**Q.** What about the relative viability ([19]; first compound 4 µM) of the same molecule?
**A.** Its relative viability is 0.876.

Reference: the supplement of paper PMC10307832
